Here are results for 15 molecules from patent EP0126849A1, “Pharmacologically active N-amino hydantoin derivatives, their synthesis and intermediates” (THE WELLCOME FOUNDATION LIMITED, priority 1983, dated 1984).

Converted amounts (≈) assume the structure as drawn. Where two headings read alike, the source gives them in different places. Some results are limits rather than exact numbers.

Data set [1] deals with acid-ethanol induced gastric lesions. Kind of data set: Inhibition of acid-ethanol induced gastric lesions in rats (cytoprotection). The format is in vivo. As to conditions: rat, oral. The method, then:
The inhibition of acid-ethanol induced gastric lesions in rats (cytoprotection) was measured for various doses of orally administered hydantoin. Figures for compound X are given for comparison.

Data set [2] relates to mean systemic arterial blood pressure (BP). Kind of data set: Cardiovascular actions in rats: fall in blood pressure and duration of the hypotensive effect. It is filed as in vivo, male Wistar rats. As to conditions: for Fall in BP Relative Potency PGE1 / Fall in BP Relative Potency PGI2: anaesthetized rat, i.v. injection; for Fall in BP Relative Potency PGE1: potency ratio against PGE1; for Fall in BP Relative Potency PGI2: potency ratio against PGI2; for Duration t½: time from peak hypotensive response to recovery to half its peak, rat i.v. As to the method:
Anaesthesia was induced in male Wistar rats (250-300 g body weight) with sodium pentobarbitone (30 mg kg^-1, i.v.) and supplemented (3 mg kg^-1) when required. Arterial pressure was recorded from a cannulated femoral artery and heart rate derived from the arterial pulse. Rectal temperature was maintained at 37°C by thermistor-controlled radiant heat. Each compound was injected into a femoral vein in a volume of 0.25 ml and flushed in with 0.2 ml of saline (0.9% w/v). Dose-response relationships for the fall in mean systemic arterial blood pressure (BP) with the hydantoins were constructed and compared to those obtained with PGI2 and PGE, in the same animal, and a potency ratio calculated. […] Figures for Compound X and PGI2 are listed for comparison.

The next data set concerns platelet aggregation. Kind of data set: Inhibition of platelet aggregation in human platelet-rich plasma (Born-type aggregometer, ADP or other aggregating agent). It is filed as cell-based. As to conditions: for IC50 / Potency relative to PGI2: human PRP; for IC50: 1 min incubation at 37°C before aggregating agent; for Potency relative to PGI2: 1 min incubation, PGI2 = 1; for Increase on Incubation (min) 5: increase in potency after 5 min incubation in PRP. The method, then: Human blood was freshly collected into siliconized (Siloclad; Clay Adams) plastic (Sterilin Ltd.) vessels containing trisodium citrate (3.15%; 0.1 volume with 0.9 volume blood) and centrifuged (200 g for 15 min) at room temperature. The platelet-rich plasma (PRP) was withdrawn into plastic containers and kept at room temperature. Inhibition of […] prior to addition of sufficient adenosine diphosphate (ADP) or other aggregating agent to just cause a non-reversing control aggregation. Dose-inhibition curves were constructed for each compound and the ID50 (dose causing 50% inhibition) was calculated as the dose required to reduce the aggregation to 50% of its control amplitude. […] For comparison, also given are the results upon administration of 5-(6-carboxyhexyl)-1-(3-cyclohexyl-3-hydroxypropyl)hydantoin (Compound X) which is disclosed in UK Specification 1,595,694. -
In this and subsequent biological examples, where a compound number refers to a single diastereoisomer, a mixture of diastereoisomers is indicated by two compound numbers separated by /.

The next data set has as its system B.P. Kind of data set: Cardiovascular studies in the dog: vasodepressor potency and duration. It is filed as in vivo, Dogs. The conditions noted are these: i.v. bolus. The method, then: Dogs (10-15 kg body weight) were anaesthetized with chloralose (80 mg/kg i.v.) and maintained with subcutaneous injections of pentobarbitone (3 mg/kg). Drugs were administered via a femoral vein by bolus injection and B.P. was recorded from the right femoral artery. Results give vasodepressor potency and t1 2 duration. Figures for Compound X are provided for comparison.

Setting [3] is: Homo sapiens, Platelet, 1 min, read-out: IC50.

What is called % inhibition is the share of the control response that was lost under treatment. A low value points to a weak effect. Consider `CCOC(=O)CCCCCCC1C(=O)NC(=O)N1N=CC(OC(C)=O)C1CCCCC1` (stereo not drawn) [4/5, 1-(2-acetoxy-2-cyclohexylethylideneamino)-5-(6-ethoxycarbonylhexyl)hydantoin], for which, in data set [1] (Dose 50 μg kg^-1), the “% inhibition” value is on record as 90 ± 6%.
Consider `CN1C(=O)C(CCCCCCC(=O)O)N(N=CC(O)C2CCCCC2)C1=O` (stereo not drawn) [25/26, 5-(6-carboxyhexyl)-1-(2-cyclohexyl-2-hydroxyethylideneamino)-3-methylhydantoin], for which, in data set [2], the “Fall in BP Relative Potency PGE1” value worked out at 1.08, the “Fall in BP Relative Potency PGI2” value came to 0.09 and the “Duration t½” value was 9 min. Moreover, in the data set with platelet aggregation (setting [3]), the IC50 stood at 13 ng/mL (≈ 0.0341 µM). Also, in the data set on platelet aggregation, the “Potency relative to PGI2” value was 0.06 and the “Increase on Incubation (min) 5” value is reported as “x6”.
In the case of `O=C(O)CCCCCCC1C(=O)NC(=O)N1NCC(O)C1CCCCC1` (stereo not drawn) [Compound No. 30, 5-(6-carboxyhexyl)-1-(2-cyclohexyl-2-hydroxyethylamino) hydantoin], the “% inhibition” value in data set [1] (Dose 25 μg kg^-1) was 65 ± 17%. Besides, in data set [2], the “Fall in BP Relative Potency PGE1” value is 0.24, the “Fall in BP Relative Potency PGI2” value was found to be 0.02 and the “Duration t½” value came out at 28 min. In the data set on platelet aggregation (setting [3]), the IC50 was 0.9 ng/mL (≈ 0.00244 µM). Also, in the data set with platelet aggregation, the “Potency relative to PGI2” value amounted to 0.64 and the “Increase on Incubation (min) 5” value is listed as “x6”.
With `O=C(O)CCCCCCC1C(=O)NC(=O)N1N=CC(O)Cc1ccccc1` (stereo not drawn) [23/24, 5-(6-carboxyhexyl)-1-(2-hydroxy-3-phenylpropylideneamino)hydantoin], the “% inhibition” value in data set [1] (Dose 10 μg kg^-1) is recorded as 55 ± 15%.
Consider `CCCCCC(O)CNN1C(=O)NC(=O)C1CCCCCCC(=O)O` (stereo not drawn) [35/36, 5-(6-carboxyhexyl)-1-(2-hydroxyheptylamino)hydantoin], for which, in data set [2], the “Fall in BP Relative Potency PGI2” value came out at 0.06 and the “Duration t½” value turned out to be 0.1 min. Moreover, the IC50 in the data set on platelet aggregation (setting [3]) was found to be 1.27 ng/mL (≈ 0.00355 µM). In the data set with platelet aggregation, the “Potency relative to PGI2” value is listed as 0.49 and the “Increase on Incubation (min) 5” value is on record as “x1.5”.
On to `O=C(O)CCCCCCC1C(=O)NC(=O)N1N=CC(O)c1ccccc1` (single isomer, unassigned) [Compound No. 11, 5-(6-carboxyhexyl)-1-(2-hydroxy-2-phenylethylldeneamino)hydantoln], for which, in data set [2], the “Fall in BP Relative Potency PGE1” value is recorded as 1.1, the “Fall in BP Relative Potency PGI2” value worked out at 0.1 and the “Duration t½” value is 16.0 min. Also, the IC50 with platelet aggregation (setting [3]) came to 1 ng/mL (≈ 0.00277 µM). In the data set with platelet aggregation, the “Potency relative to PGI2” value was determined as 0.53 and the “Increase on Incubation (min) 5” value was “x8”.
Turning to `O=C(O)CCCCCCC1C(=O)NC(=O)N1NCC(O)c1ccccc1` (stereo not drawn) [Compound No. 34, 5-(6-carboxyhexyl)-1-(2-hydroxy-2-phenylethylamino)hydantoin], in the data set with platelet aggregation, the IC50 came out at 175 ngml^-1 and the “Potency relative to PGI2” value is given as 0.003.
Regarding `O=C(O)CCCCCCC1C(=O)NC(=O)N1N=CCC1CCCCC1` (stereo not drawn) [compound 8, 5-(6-carboxyhexyl)-1-(2-cyclahexylethylideneamino) hydantoin], the “% inhibition” value in data set [1] (Dose 25 μg kg^-1) was found to be 71 ± 6%. Further, in data set [1] (Dose 50 μg kg^-1), the “% inhibition” value amounted to 76 ± 11%. In data set [2], the “Fall in BP Relative Potency PGE1” value came out at 0.11, the “Fall in BP Relative Potency PGI2” value is listed as 0.01 and the “Duration t½” value turned out to be 1.0 min. Besides, the IC50 with platelet aggregation (setting [3]) was determined as 24 ng/mL (≈ 0.0683 µM). Moreover, in the data set with platelet aggregation, the “Potency relative to PGI2” value is on record as 0.05.
Turning to `O=C(O)CCCCCCC1C(=O)NC(=O)N1NCC(O)c1ccccc1` (stereo not drawn) [33/34, 5-(6-carboxyhexyl)-1-(2-hydroxy-2-phenylethylamino) hydantoin], in data set [2], the “Fall in BP Relative Potency PGE1” value stood at 0.24, the “Fall in BP Relative Potency PGI2” value stood at 0.02 and the “Duration t½” value was found to be 6 min. In the data set with platelet aggregation, the IC50 stood at 6 ngml^-1, the “Potency relative to PGI2” value is 0.17 and the “Increase on Incubation (min) 5” value is on record as “x2”.
In the case of `CCCCCC(O)C=NN1C(=O)NC(=O)C1CCCCCCC(=O)O` (stereo not drawn) [Compound No. 17, 5-(6-carboxyhexyl)-1-(2-hydroxyheptylideneamino)hydantoin], in data set [2], the “Fall in BP Relative Potency PGE1” value worked out at 0.12, the “Fall in BP Relative Potency PGI2” value came to 0.01 and the “Duration t½” value was 3.5 min. In the data set with platelet aggregation, the IC50 is 131 ngml^-1, the “Potency relative to PGI2” value came to 0.01 and the “Increase on Incubation (min) 5” value is given as “x2”.
Turning to `CCCCCC(O)CNN1C(=O)NC(=O)C1CCCCCCC(=O)O` (single isomer, unassigned) [Compound No. 35, 5-(6-carboxyhexyl)-I-(2-hydroxyheptylamino)hydantoin], in data set [2], the “Fall in BP Relative Potency PGI2” value was 0.01 and the “Duration t½” value came to 1.3 min. For the same molecule, the IC50 in the data set on platelet aggregation (setting [3]) is 12.7 ng/mL (≈ 0.0355 µM). In the data set with platelet aggregation, the “Potency relative to PGI2” value is 0.05 and the “Increase on Incubation (min) 5” value is recorded as “x1.5”.
For the molecule `CN1C(=O)C(CCCCCCC(=O)O)N(NCC(O)C2CCCCC2)C1=O` (stereo not drawn) [37/38], the “% inhibition” value in data set [1] (Dose 10 μg kg^-1) came out at 71 ± 7%. In data set [2], the “Fall in BP Relative Potency PGE1” value is 0.36, the “Fall in BP Relative Potency PGI2” value was determined as 0.03 and the “Duration t½” value turned out to be 17 min. The IC50 with platelet aggregation (setting [3]) is 3 ng/mL (≈ 0.00782 µM). In the data set with platelet aggregation, the “Potency relative to PGI2” value was 0.18 and the “Increase on Incubation (min) 5” value was “x7”.
Consider `O=C(O)CCCCCCC1C(=O)NC(=O)N1NCC(O)C1CCCCC1` (single isomer, unassigned) [compound 29, 5-(6-carboxyhexyl)-1-(2-cyclohexyl-2-hydroxyethylamino)hydantoln], for which the “Δ BP” value in the data set on B.P. (Dose 0.625 ug kg^-1) is recorded as -26 mm Hg. In the data set on B.P. (Dose 0.625 ug kg^-1, duration of vasodepressor effect), this molecule yielded a t1/2 of over 30 min. Moreover, the “Δ BP” value with B.P. (Dose 1.25 ug kg^-1) was -51 mm Hg. The t1/2 in the data set with B.P. (Dose 1.25 ug kg^-1, duration of vasodepressor effect) was over 60 min. In data set [2], the “Fall in BP Relative Potency PGE1” value came out at 0.24, the “Fall in BP Relative Potency PGI2” value came out at 0.02 and the “Duration t½” value stood at 37 min. Moreover, in the data set with platelet aggregation (setting [3]), the IC50 was determined as 6 ng/mL (≈ 0.0162 µM). In the data set on platelet aggregation, the “Potency relative to PGI2” value stood at 0.16 and the “Increase on Incubation (min) 5” value is given as “x7”.
For `CCCCCC(O)C=NN1C(=O)NC(=O)C1CCCCCCC(=O)O` (stereo not drawn) [17/18, 5-(6-carboxyhexyl)-1-(2-hydroxyheptylideneamino)hydantoin], in data set [2], the “Fall in BP Relative Potency PGE1” value was 0.48, the “Fall in BP Relative Potency PGI2” value came out at 0.04 and the “Duration t½” value fell in the range of 10 to 19 min. Further, in the data set with platelet aggregation, the IC50 is given as 8 ngml^-1, the “Potency relative to PGI2” value is 0.12 and the “Increase on Incubation (min) 5” value is “x2”.
For `O=C(O)CCCCCCC1C(=O)NC(=O)N1NCC(O)c1ccccc1` (stereo not drawn) [Compound No. 33, 5-(6-carboxyhexyl)-1-(2-hydroxy-2-phenylethylamino)hydantoin], in the data set on platelet aggregation, the IC50 was determined as 5.3 ngml^-1, the “Potency relative to PGI2” value is reported as 0.07 and the “Increase on Incubation (min) 5” value is “x2”.
